These results are taken from ChEMBL document CHEMBL3879915, “Methods of inhibiting PRMT5” (2014).

The target of test [1] is Protein arginine N-methyltransferase 5 (Homo sapiens, UniProt O14744). Briefly: Inhibition of PRMT5 in human Z138 cells assessed as decrease in di-methyl arginine levels after 96 hrs by Western blot method. Format: cell-based. For orientation: A western blot detects proteins with antibodies after separation by electrophoresis.
The target of another test is PRMT5/MEP50 complex (Homo sapiens, UniProt O14744). In words: Inhibition of recombinant human fetal brain FLAG-tagged PRMT5/full length human testis 6His-tagged MEP50 expressed in baculovirus infected insect Sf9 cells using human histone H4 (1 to 15 residues) as substrate preincubated for 30 mins followed by [3H]-SAM addition.
PRMT5/MEP50 complex, sequence (O14744 whole entry, the tested form may be a part): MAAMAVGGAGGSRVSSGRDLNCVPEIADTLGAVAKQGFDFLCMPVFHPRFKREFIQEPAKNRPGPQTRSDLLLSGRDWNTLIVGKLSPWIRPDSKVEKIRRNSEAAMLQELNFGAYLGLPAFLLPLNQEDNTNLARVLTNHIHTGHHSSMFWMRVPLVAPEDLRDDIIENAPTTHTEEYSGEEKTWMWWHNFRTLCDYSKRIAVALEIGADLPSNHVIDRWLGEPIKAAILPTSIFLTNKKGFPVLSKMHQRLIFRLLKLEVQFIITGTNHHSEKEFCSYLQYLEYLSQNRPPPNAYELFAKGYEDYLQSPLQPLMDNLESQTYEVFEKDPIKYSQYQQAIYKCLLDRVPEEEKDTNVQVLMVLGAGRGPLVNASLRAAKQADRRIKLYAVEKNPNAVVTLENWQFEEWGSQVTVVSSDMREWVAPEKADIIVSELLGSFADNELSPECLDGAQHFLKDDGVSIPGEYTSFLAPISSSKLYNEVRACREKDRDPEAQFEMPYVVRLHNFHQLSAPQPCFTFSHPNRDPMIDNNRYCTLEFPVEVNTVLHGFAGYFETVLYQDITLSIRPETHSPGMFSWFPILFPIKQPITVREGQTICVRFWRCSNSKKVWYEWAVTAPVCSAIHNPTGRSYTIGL
PRMT5/MEP50 complex, sequence (Q9BQA1 whole entry, further chain, the tested form may be a part): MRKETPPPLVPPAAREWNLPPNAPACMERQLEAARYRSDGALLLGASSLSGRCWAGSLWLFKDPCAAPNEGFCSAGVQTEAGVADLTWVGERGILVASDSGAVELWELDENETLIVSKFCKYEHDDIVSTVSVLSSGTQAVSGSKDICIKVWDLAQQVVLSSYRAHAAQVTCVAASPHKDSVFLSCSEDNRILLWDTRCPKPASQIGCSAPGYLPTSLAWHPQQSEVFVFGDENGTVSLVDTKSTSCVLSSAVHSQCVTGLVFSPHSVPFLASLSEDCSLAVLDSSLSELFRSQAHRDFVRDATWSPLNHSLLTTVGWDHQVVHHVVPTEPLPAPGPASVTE
A short description of test [2]: Antiproliferative activity against human Z138 cells assessed as inhibition of cell viability after 5 days by Cell-Titer Glo assay. The class given is functional, cell-based. Particulars: Z-138, 120 h.

Protein arginine N-methyltransferase 5, sequence (O14744 whole entry, the tested form may be a part): as the sequence (O14744 whole entry, the tested form may be a part) above

Consider `NC(=O)c1ccc(-c2cccc(OCC(O)CN3CCc4ccccc4C3)c2)cc1` (stereo not drawn), for which the EC50 in test [1] is 1 to 10 µM; in test [2], > 20 µM. Also, on PRMT5/MEP50 complex, the half-inhibitory concentration (IC50) is 0.101 to 1 µM.

Consider `COC(=O)c1cncc(-c2cccc(OCC(O)CN3CCc4ccccc4C3)c2)c1` (stereo not drawn), for which the EC50 in test [1] and in test [2] was > 20 µM throughout. For the same molecule, the IC50 at PRMT5/MEP50 complex was in the range of 1 to 10 µM.

On to `OC(COc1cccc(-c2ccc3ncn(C4CCNCC4)c3c2)c1)CN1CCc2ccccc2C1` (stereo not drawn), for which the EC50 lay within 0.101 to 1 µM in test [1] and 1 to 10 µM in test [2]. Besides, the IC50 at PRMT5/MEP50 complex was < 0.1 µM.

For the molecule `O=C(Cn1ccc2cnc(-c3cccc(OCC(O)CN4CCc5ccccc5C4)c3)nc21)N1CCOCC1` (stereo not drawn), the concentration for a half-maximal effect (EC50) lay in the range of 0.101 to 1 µM in test [1] and 10 to 40 µM in test [2]. The IC50 on PRMT5/MEP50 complex was in the range of 0.101 to 1 µM.

Consider `Cn1ccc2ccc(-c3cccc(OCC(O)CN4CCc5ccccc5C4)c3)nc21` (stereo not drawn), for which the EC50 in test [1] was 0.101 to 1 µM; in test [2], > 20 µM. On PRMT5/MEP50 complex, the IC50 was < 0.1 µM.

As to `CN1CCC(n2cnc3ccc(-c4cccc(OCC(O)CN5CCc6ccccc6C5)c4)cc32)C1` (stereo not drawn), the EC50 in test [1] was 0.101 to 1 µM; in test [2], 1 to 10 µM. Also, the IC50 on PRMT5/MEP50 complex was < 0.1 µM.

Consider `Cn1ccc(C(=O)Nc2cccc(OCC(O)CN3CCc4ccccc4C3)c2)n1` (stereo not drawn), for which the EC50 in test [1] is 1 to 10 µM; in test [2], > 20 µM. For the same molecule, the IC50 at PRMT5/MEP50 complex fell in the range of 1 to 10 µM.

For `O=C(Nc1cccc(OCC(O)CN2CCc3ccccc3C2)c1)c1cncnc1` (stereo not drawn), the results for the EC50 in test [1] and in test [2] were 1 to 10 µM and > 20 µM, respectively. Also, on PRMT5/MEP50 complex, the IC50 was 1 to 10 µM.

With `Cn1cnc(C(=O)Nc2cccc(OCC(O)CN3CCc4ccccc4C3)c2)c1` (stereo not drawn), the results for the EC50 in test [1] and in test [2] were 1 to 10 µM and > 20 µM, respectively. Besides, the 50% inhibitory concentration (IC50) at PRMT5/MEP50 complex was 1 to 10 µM.

As to `Cn1cnc2cnc(-c3cccc(OCC(O)CN4CCc5ccccc5C4)c3)nc21` (stereo not drawn), the figures for the EC50 in test [1] and in test [2] were 0.101 to 1 µM and 1 to 10 µM, respectively. Moreover, the IC50 at PRMT5/MEP50 complex was in the range of 0.101 to 1 µM.

For `O=C1COc2ccc(-c3cccc(OCC(O)CN4CCc5ccccc5C4)c3)cc2N1` (stereo not drawn), the EC50 in test [1] lay in the range of 1 to 10 µM; in test [2] it was 10 to 40 µM. Also, the half-inhibitory concentration (IC50) on PRMT5/MEP50 complex lay in the range of 0.101 to 1 µM.

Turning to `OC(COc1cccc(-c2ccc3cnoc3c2)c1)CN1CCc2ccccc2C1` (stereo not drawn), the results for the EC50 in test [1] and in test [2] were 10 to 40 µM and > 20 µM, respectively. Besides, the IC50 on PRMT5/MEP50 complex lay in the range of 1 to 10 µM.

On to `OC(CNc1cccc(-c2cccc3[nH]cnc23)c1)CN1CCc2ccccc2C1` (stereo not drawn), for which the EC50 in test [1] is 0.101 to 1 µM; in test [2], 10 to 40 µM. The IC50 at PRMT5/MEP50 complex was in the range of 0.101 to 1 µM.

Regarding `Cn1cnc2ccc(-c3cc(NCC(O)CN4CCc5ccccc5C4)ncn3)cc21` (stereo not drawn), the results for the EC50 in test [1] and in test [2] were 0.101 to 1 µM and 1 to 10 µM, respectively. Moreover, at PRMT5/MEP50 complex, the IC50 is 0.101 to 1 µM.

Consider `Cn1cc2ccc(-c3cccc(OCC(O)CN4CCc5ccccc5C4)c3)nc2n1` (stereo not drawn), for which the EC50 was 0.101 to 1 µM in test [1] and 10 to 40 µM in test [2]. Moreover, the IC50 on PRMT5/MEP50 complex was < 0.1 µM.

On to `Cn1ncc2ccc(-c3cc(NCC(O)CN4CCc5ccccc5C4)ncn3)cc21` (stereo not drawn), for which the EC50 in test [1] is 0.101 to 1 µM; in test [2] it was > 20 µM. Moreover, the IC50 at PRMT5/MEP50 complex was 0.101 to 1 µM.

Turning to `Cn1cnc2ccc(-c3ccnc(NCC(O)CN4CCc5ccccc5C4)c3)nc21` (stereo not drawn), the EC50 in test [1] is < 0.1 µM; in test [2] it was 1 to 10 µM. Further, the IC50 at PRMT5/MEP50 complex was < 0.1 µM.

For `CC(C)Oc1ccc(F)c(-c2cccc(OCC(O)CN3CCc4ccccc4C3)c2)c1` (stereo not drawn), the EC50 in test [1] was 1 to 10 µM; in test [2] it was > 20 µM. The IC50 at PRMT5/MEP50 complex is 0.101 to 1 µM.

On to `OC(CNc1cc(-c2ccc3ncn(C4CCNC4)c3c2)ccn1)CN1CCc2ccccc2C1` (stereo not drawn), for which the EC50 in test [1] fell in the range of 0.101 to 1 µM; in test [2] it was 1 to 10 µM. Besides, the IC50 on PRMT5/MEP50 complex is < 0.1 µM.

Take `CC(=O)Nc1cccc(-c2cccc(OCC(O)CN3CCc4ccccc4C3)c2)c1` (stereo not drawn): the results for the EC50 in test [1] and in test [2] were 0.101 to 1 µM and > 20 µM, respectively. At PRMT5/MEP50 complex, the IC50 lay in the range of 0.101 to 1 µM.

Turning to `CC(C)(C)OCc1cccc(-c2cccc(OCC(O)CN3CCc4ccccc4C3)c2)c1` (stereo not drawn), the values for the EC50 in test [1] and in test [2] were 1 to 10 µM and > 20 µM, respectively. On PRMT5/MEP50 complex, the IC50 is 0.101 to 1 µM.

As to `CN(C)c1ccc(-c2cccc(OCC(O)CN3CCc4ccccc4C3)c2)cc1` (stereo not drawn), the concentration giving a half-maximal response (EC50) in test [1] was 1 to 10 µM; in test [2] it was > 20 µM. Further, on PRMT5/MEP50 complex, the IC50 lay within 0.101 to 1 µM.

Take `OC(COc1cccc(-c2ccc3ncn(C4CNC4)c3c2)c1)CN1CCc2ccccc2C1` (stereo not drawn): the EC50 in test [1] and in test [2] was 1 to 10 µM each time. Further, the IC50 at PRMT5/MEP50 complex lay within 0.101 to 1 µM.

For `Cn1ccc2ccc(-c3cc(NCC(O)CN4CCc5ccccc5C4)ncn3)cc21` (stereo not drawn), the EC50 in test [1] lay in the range of 0.101 to 1 µM; in test [2], 10 to 40 µM. Moreover, on PRMT5/MEP50 complex, the IC50 was in the range of 0.101 to 1 µM.

On to `CNC(=O)c1cncc(-c2cccc(OCC(O)CN3CCc4ccccc4C3)c2)c1` (stereo not drawn), for which the EC50 is 1 to 10 µM in test [1] and > 20 µM in test [2]. Further, at PRMT5/MEP50 complex, the IC50 is 1 to 10 µM.

With `OC(COc1cccc(-c2csc3ccccc23)c1)CN1CCc2ccccc2C1` (stereo not drawn), the EC50 in test [1] was 1 to 10 µM; in test [2] it was > 20 µM. Further, at PRMT5/MEP50 complex, the IC50 lay in the range of 0.101 to 1 µM.

The EC50 is the concentration that produces a half-maximal response. In general, IC50 refers to the midpoint of a concentration-inhibition curve.
